Counter-ions that a name gives are not always drawn.

The test system of data set [1] is Ishikawa human endometrial tumor cells. The data set is described as follows: Ishikawa Cell Proliferation Assay, antagonist mode (block of estradiol stimulation). In kind it is cell-based. The method, then:
Ishikawa Cell Proliferation Assay: This assay measures cell proliferation (using an alkaline phosphatase readout) in both an agonist mode in the presence of a compound of the present invention alone, and in an antagonist mode in which the ability of a compound of the present invention to block estradiol stimulation of growth is measured.
Ishikawa human endometrial tumor cells are maintained in MEM (minimum essential medium, with Earle's salts and L-Glutamine, Gibco BRL, Gaithersburg, Md.), supplemented with 10% fetal bovine serum (FBS) (V/V), (Gibco BRL). […]
For the agonist mode, plates receive 25 μl/well of assay medium followed by 25 μl/well of a diluted compound of the present invention (at 6× the final concentrations). […] After a 20-minute incubation, plates are read on a spectophotometer at 405 nm.
The data is fitted to a linear interpolation to derive EC50 (for agonist mode) or IC50 (for antagonist mode) values. For the antagonist mode, a % efficacy for each compound is calculated versus E2 (1 nM) alone. For the agonist mode, a % efficacy for each compound is calculated versus the response to tamoxifen.

The test system is the same in data set [2]. The data set is described as follows: Ishikawa Cell Proliferation Assay, agonist mode (alkaline phosphatase readout). The format is cell-based. To be noted: versus the response to tamoxifen, read-out: relative % efficacy.
The subject of data set [3] is mature, ovariectomized rats. The data set is described as follows: 4-Day OVX Rat Uterine Agonist Assay. The format is in vivo. The conditions noted are these: 4 days of treatment, 3 doses. The method, then: Cholesterol levels are also measured to compare relative ability to lower cholesterol with other SERMs. If there is any question of uterine stimulation, histological examination will determine epithelial cell height.

Data set [4] deals with immature (3 week old) female rats. The data set is described as follows: 3-Day Rat Uterus Antagonist Assay. The format is in vivo. To be noted: oral, 3 days, with E2 0.1 mg/kg.
Source text: 3-Day Rat Uterus Antagonist Assay: This model for uterine antagonism utilizes immature (3 week old) female rats that are highly sensitive to estrogenic stimulation of the uterus given that their circulating estrogen levels are prepubertal. The uteri from immature rats are fully responsive to exogenous estrogen, yet are quiescent in the absence of exogenous estrogen. Administration of exogenous estrogen to immature rats produces a reliable elevation of uterine weight, which can be used to study uterine antagonist effects.
Test compounds are dissolved in 20% β-hydroxycyclodextrin and administered by oral gavage in a volume of 0.2 mL daily (15 min. prior to the ethynyl estradiol gavage). A vehicle control, E2 alone and E2+raloxifene are also done as controls. The animals are fasted overnight following the final dose. […]
Uterine weight/body weight ratios (UWR) are calculated for each animal. The percent inhibition of the estrogen-induced response is then calculated by the following formula: percent inhibition=100×(UWRestrogen−UWRtest compound/UWRestrogen−UWRcontrol). […] Both the UWR data and the percent inhibition data were statistically analyzed by one way analysis of variance (ANOVA) with post-hoc testing by Fisher's PLSD when indicated by a p≦0.05. […]

What is called IC50 is the concentration that inhibits the measured activity by half. On to `CS(=O)(=O)c1cccc(-c2ccc3cc(O)ccc3c2Oc2ccc(OCCN3CCCCC3)cc2)c1` [Example 16, 6-(3-Methanesulfonyl-phenyl)-5-[4-(2-piperidin-1-yl-ethoxy)-phenoxy]-naphthalen-2-ol Hydrochloride], for which the IC50 in data set [1] (1 nM E2) amounted to 35.2 nM. The Emax in data set [1] (versus E2 (1 nM) alone, read-out: % efficacy (inhibition of the 1 nM estradiol response)) was 107%.

Take `CCS(=O)(=O)c1cc(-c2ccc3cc(O)ccc3c2Oc2ccc(OCCN3CCCCC3)cc2)cc(S(=O)(=O)CC)c1` [Example 56, 6-(3,5-Bis-ethanesulfonyl-phenyl)-5-[4-(2-piperidin-1-yl-ethoxy)-phenoxy]-naphthalen-2-ol Hydrochloride]: in data set [2], the Emax stood at 71.8%.

Turning to `CCS(=O)(=O)c1ccc(-c2ccc3cc(O)ccc3c2Oc2ccc(OCCN3CCCCC3)cc2)cc1.Cl` [Example 14, 6-(4-Ethanesulfonyl-phenyl)-5-[4-(2-piperidin-1-yl-ethoxy)-phenoxy]-naphthalen-2-ol Hydrochloride], the “uterine eosinophil peroxidase (EPO) activity” value in data set [3] is reported as “did not cause dose-related statistically significant increases”.

Turning to `CS(=O)(=O)c1ccc(-c2sc3cc(O)ccc3c2Oc2ccc(OCCN3CCCCC3)cc2)cc1.Cl` [Example 92, 2-(4-Methanesulfonyl-phenyl)-3-[4-(2-piperidin-1-yl-ethoxy)-phenoxy]-benzo[b]thiophen-6-ol Hydrochloride], in data set [4], the “% antagonism” value came out at 62.7% and the ED50 was 0.53 mpk.

The record behind these values is patent publication US7585977B2, “Selective estrogen receptor modulators containing a phenylsulfonyl group” (Eli Lilly and Company, priority 2005, dated 2009).
